Source: patent publication US9040530B2, “1,2,4-triazine-6-carboxamide kinase inhibitors” (Portola Pharmaceuticals, Inc., priority 2012, dated 2015)

Molecular target: T1, full length active recombinant SYK enzyme (Homo sapiens, UniProt P43405)
T1 construct: full length active recombinant SYK enzyme (Millipore, Calif.); purchased Millipore
Experiment: Inhibition of Syk tyrosine phosphorylation activity (LANCE TR-FRET kinase assay)
Format: biochemical
Conditions: 1 nM active SYK enzyme, 550 nM SYK-substrate, 100 μM ATP, 1 hour at room temperature
Description: The in vitro and in vivo human Syk activities of the inventive compounds can be determined by various procedures known in the art, such as a test for their ability to inhibit the activity of human plasma Syk.
Inhibition of Syk Tyrosine Phosphorylation Activity
SYK tyrosine phosphorylation activity is measured using the LANCE™ Technology developed by Perkin Elmer Life and Analytical Sciences (Boston, Mass.). LANCE™ refers to homogeneous time resolved fluorometry applications using techniques such as time-resolved fluorescence resonance energy transfer assay (TR-FRET) (see generally for procedures in Perkin Elmer Application Note—How to Optimize a Tyrosine Kinase Assay Using Time Resolved Fluorescence-Based LANCE Detection, wwww.perkinelmer.com/lifesciences). The assay principle involves detection of a phosphorylated substrate using energy transfer from a phosphospecific europium-labeled antibody to streptavidin-allophycocyanin as an acceptor.
Molecules are reconstituted in 30% DMSO and serially diluted 1:3 with the final dilution containing DMSO in the absence of the candidate molecule. The final DMSO concentration in the assay is 3%. Kinase assays are performed as a two part reaction. […] The second reaction involves termination of the kinase reaction and the simultaneous addition of the detection reagents-europium-labeled anti-phosphotyrosine reagent (Eu-W1024-PY100, Perkin Elmer, Boston, Mass.) and Streptavidin-Allophycocyanin detection reagent (SA-APC, Prozyme, CA). The kinase reaction is performed in a black U-bottom 96-well microtitre plate. […] The reaction is allowed to proceed for 1 hour at room temperature. The quench buffer contains 100 mM Tris pH 7.5, 300 mM […], 20 mM EDTA, 0.02% Brij35, and 0.5% BSA. The detection reagents are added to the reaction mixture at the following dilutions-1:500 for Eu-W1024-PY100 and 1:250 for SA-APC. The kinase reaction is terminated by the addition of 50 μL quench buffer containing the detection reagents. The detection is allowed to proceed for 1 hr at room temperature. Detection of the phosphorlated substrate in the absence and presence of inhibitors is measured in the TR-FRET instrument, Analyst HT (Molecular Probes, Sunnyvale, Calif.) and the condition for measurements are set up using CriterionHost Release 2.0 (Molecular Probes, Sunnyvale, Calif.). […] IC50s were derived by non-linear regression analysis.

Row | IC50 [nM] | SMILES
1 | < 1 | Cn1ccc2c(Nc3nc(N[C@@H]4CCCC[C@@H]4N)nnc3C(N)=O)ccnc21 [Example 129, 3-(((1R,2S)-2-aminocyclohexyl)amino)-5-((1-methyl-1H-pyrrolo[2,3-b]pyridin-4-yl)amino)-1,2,4-triazine-6-carboxamide]
2 | 100 to 1000 | CC[C@@H](Nc1nnc(C(N)=O)c(Nc2ccc(OC)c(C(F)(F)F)c2)n1)C(N)=O [Example 112, (R)-3-((1-amino-1-oxobutan-2-yl)amino)-5-((4-methoxy-3-(trifluoromethyl)phenyl)amino)-1,2,4-triazine-6-carboxamide]
3 | 1 to 10 | NC(=O)c1nnc(N[C@H](CC(F)F)C(N)=O)nc1Nc1cc(Cl)c2ncccc2c1 [Example 185, (R)-3-((1-amino-4,4-difluoro-1-oxobutan-2-yl)amino)-5-((8-chloroquinolin-6-yl)amino)-1,2,4-triazine-6-carboxamide]
4 | 1 to 10 | NC(=O)c1nnc(N[C@@H]2CCCC[C@@H]2N)nc1Nc1ccc(-c2ncco2)cc1 [Example 131, 3-(((1R,2S)-2-aminocyclohexyl)amino)-5-((4-(oxazol-2-yl)phenyl)amino)-1,2,4-triazine-6-carboxamide]
5 | 10 to 100 | COc1cc(Nc2nc(N[C@@H]3CCCC(F)(F)[C@@H]3N)nnc2C(N)=O)ccc1C [Example 229, 3-(((1R,2R)-2-amino-3,3-difluorocyclohexyl)amino)-5-((3-methoxy-4-methylphenyl)amino)-1,2,4-triazine-6-carboxamide]
6 | 1 to 10 | CC[C@@H](Nc1nnc(C(N)=O)c(Nc2ccc3cc[nH]c3c2)n1)C(N)=O [Example 102, (R)-5-((1H-indol-6-yl)amino)-3-((1-amino-1-oxobutan-2-yl)amino)-1,2,4-triazine-6-carboxamide]
7 | 100 to 1000 | Cn1cc(Nc2nc(N[C@@H]3CCCC[C@@H]3N)nnc2C(N)=O)cn1 [Example 78, 3-(((1R,2S)-2-aminocyclohexyl)amino)-5-((1-methyl-1H-pyrazol-4-yl)amino)-1,2,4-triazine-6-carboxamide]
8 | 10 to 100 | NC(=O)c1nnc(N[C@@H]2CCCC(F)(F)[C@@H]2N)nc1Nc1cnn2ccccc12 [Example 36, 3-(((1R,2R)-2-amino-3,3-difluorocyclohexyl)amino)-5-(pyrazolo[1,5-a]pyridin-3-ylamino)-1,2,4-triazine-6-carboxamide]
9 | 1 to 10 | NC(=O)c1nnc(N[C@@H]2CCCC(F)(F)[C@@H]2N)nc1Nc1ccc2c(c1)COCC2 [Example 228, 3-(((1R,2R)-2-amino-3,3-difluorocyclohexyl)amino)-5-(isochroman-7-ylamino)-1,2,4-triazine-6-carboxamide]
10 | 1 to 10 | COc1cc(Nc2nc(N[C@@H]3CCCC[C@@H]3N)nnc2C(N)=O)ccn1 [Example 68, 3-(((1R,2S)-2-aminocyclohexyl)amino)-5-((2-methoxypyridin-4-yl)amino)-1,2,4-triazine-6-carboxamide]
11 | 100 to 1000 | Cn1ccc2c(Nc3nc(NCC4CCC(=O)N4)nnc3C(N)=O)cccc21 (stereo not drawn) [Example 89, 5-((1-methyl-1H-indol-4-yl)amino)-3-(((5-oxopyrrolidin-2-yl)methyl)amino)-1,2,4-triazine-6-carboxamide]
12 | < 1 | Cn1ncc2ccc(Nc3nc(N[C@H](CC(F)F)C(N)=O)nnc3C(N)=O)cc21 [Example 184, (R)-3-((1-amino-4,4-difluoro-1-oxobutan-2-yl)amino)-5-((1-methyl-1H-indazol-6-yl)amino)-1,2,4-triazine-6-carboxamide]
13 | 10 to 100 | CC(C)C[C@@H](Nc1nnc(C(N)=O)c(Nc2cccc(-n3nccn3)c2)n1)C(N)=O [Example 83, (R)-5-((3-(2H-1,2,3-triazol-2-yl)phenyl)amino)-3-((1-amino-4-methyl-1-oxopentan-2-yl)amino)-1,2,4-triazine-6-carboxamide]
14 | 10 to 100 | Cn1ccc2ccc(Nc3nc(N[C@@H]4CCCC(F)(F)[C@@H]4N)nnc3C(N)=O)cc21 [Example 166, 3-(((1R,2R)-2-amino-3,3-difluorocyclohexyl)amino)-5-((1-methyl-1H-indol-6-yl)amino)-1,2,4-triazine-6-carboxamide]
15 | 10 to 100 | NC(=O)c1nnc(N[C@H](CC2CC2)C(N)=O)nc1Nc1ccc(Cl)cc1 [Example 249, (R)-3-((1-amino-3-cyclopropyl-1-oxopropan-2-yl)amino)-5-((4-chlorophenyl)amino)-1,2,4-triazine-6-carboxamide]
16 | 1 to 10 | NC(=O)c1nnc(N[C@@H]2CCCC[C@@H]2N)nc1Nc1ccc(N2CCOCC2)c(F)c1 [Example 30, 3-(((1R,2S)-2-aminocyclohexyl)amino)-5-((3-fluoro-4-morpholinophenyl)amino)-1,2,4-triazine-6-carboxamide]
17 | 1 to 10 | Cc1ccc(Nc2nc(N[C@@H]3CCCC[C@@H]3N)nnc2C(N)=O)cc1F [Example 19, 3-(((1R,2S)-2-aminocyclohexyl)amino)-5-((3-fluoro-4-methylphenyl)amino)-1,2,4-triazine-6-carboxamide]
18 | 100 to 1000 | NC(=O)c1nnc(N[C@@H]2CCOC[C@@H]2N)nc1Nc1cnc2cccnc2c1 [Example 257, 5-((1,5-naphthyridin-3-yl)amino)-3-(((3R,4R)-3-aminotetrahydro-2H-pyran-4-yl)amino)-1,2,4-triazine-6-carboxamide]
19 | 10 to 100 | CC[C@@H](Nc1nnc(C(N)=O)c(Nc2ccc3ccn(C)c3c2)n1)C(N)=O [Example 163, (R)-3-((1-amino-1-oxobutan-2-yl)amino)-5-((1-methyl-1H-indol-6-yl)amino)-1,2,4-triazine-6-carboxamide]
20 | > 1000 | NC(=O)c1nnc(N)nc1Nc1cccc(-c2ncccn2)c1 [Example 92, 3-amino-5-((3-(pyrimidin-2-yl)phenyl)amino)-1,2,4-triazine-6-carboxamide]
21 | 1 to 10 | NC(=O)c1nnc(N[C@@H]2CCCC[C@@H]2N)nc1Nc1cc(F)cc(F)c1 [Example 20, 3-(((1R,2S)-2-aminocyclohexyl)amino)-5-((3,5-difluorophenyl)amino)-1,2,4-triazine-6-carboxamide]
22 | 10 to 100 | CC[C@@H](Nc1nnc(C(N)=O)c(Nc2ccc3scnc3c2)n1)C(N)=O [Example 246, (R)-3-((1-amino-1-oxobutan-2-yl)amino)-5-(benzo[d]thiazol-5-ylamino)-1,2,4-triazine-6-carboxamide]
23 | 100 to 1000 | NC(=O)c1nnc(N[C@@H]2CCCC(F)(F)[C@@H]2N)nc1Nc1ccc(Cl)c(Cl)c1 [Example 236, 3-(((1R,2R)-2-amino-3,3-difluorocyclohexyl)amino)-5-((3,4-dichlorophenyl)amino)-1,2,4-triazine-6-carboxamide]
24 | 100 to 1000 | COC[C@@H](Nc1nnc(C(N)=O)c(Nc2ccc(C)cc2)n1)C(N)=O [Example 187, (R)-3-(1-amino-3-methoxy-1-oxopropan-2-ylamino)-5-(p-tolylamino)-1,2,4-triazine-6-carboxamide]
25 | 100 to 1000 | NC(=O)c1nnc(N[C@@H]2CCCC(F)(F)[C@@H]2N)nc1Nc1cccc(-c2ncccn2)c1 [Example 2, 3-(((1R,2R)-2-amino-3,3-difluorocyclohexyl)amino)-5-((3-(pyrimidin-2-yl)phenyl)amino)-1,2,4-triazine-6-carboxamide]
26 | 10 to 100 | CN(C)c1ccc(Nc2nc(N[C@@H]3CCCC[C@@H]3N)nnc2C(N)=O)cc1F [Example 161, 3-(((1R,2S)-2-aminocyclohexyl)amino)-5-((4-(dimethylamino)-3-fluorophenyl)amino)-1,2,4-triazine-6-carboxamide]
27 | 1 to 10 | NC(=O)c1nnc(N[C@@H]2CCCC[C@@H]2N)nc1Nc1cccc(-c2ncco2)c1 [Example 7, 3-(((1R,2S)-2-aminocyclohexyl)amino)-5-((3-(oxazol-2-yl)phenyl)amino)-1,2,4-triazine-6-carboxamide]
28 | 100 to 1000 | CC[C@@H](Nc1nnc(C(N)=O)c(Nc2cccc(-c3ncccn3)c2)n1)C(N)=O [Example 84, (R)-3-((1-amino-1-oxobutan-2-yl)amino)-5-((3-(pyrimidin-2-yl)phenyl)amino)-1,2,4-triazine-6-carboxamide]
29 | 10 to 100 | CC[C@@H](Nc1nnc(C(N)=O)c(Nc2cnc3ccccc3c2)n1)C(N)=O [Example 59, (R)-3-((1-amino-1-oxobutan-2-yl)amino)-5-(quinolin-3-ylamino)-1,2,4-triazine-6-carboxamide]
30 | 10 to 100 | NC(=O)c1nnc(N[C@@H]2CCCC(F)(F)[C@@H]2N)nc1Nc1ccc2c(c1)COC2 [Example 216, 3-(((1R,2R)-2-amino-3,3-difluorocyclohexyl)amino)-5-((1,3-dihydroisobenzofuran-5-yl)amino)-1,2,4-triazine-6-carboxamide]
